US20080021026A1, “BENZOTHIOPHENE INHIBITORS OF RHO KINASE” (priority 2006, published 2008)
Read-outs that look alike come from different tables or passages of the source.

Biological target: T1, recombinant N-terminal GST-tagged human Rho kinase 2 (ROCK2, amino acids 1-552) (Homo sapiens, UniProt O75116)
T1 construct: ROCK2, amino acids 1-552; purchased Invitrogen Inc. PV3759
Assay: In vitro Rho kinase assay (luciferase-based ATP consumption), ROCK2
Type: biochemical
How it was run: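 GST-ROCK2 (aa 1-552, 0.82 μg/ml) with 100 μg/ml S6 peptide and 3 µM ATP in Tris pH 7.5 buffer with MgCl2/CaCl2/EGTA/BSA, compound added just after reaction start, 2 h at 30 °C. Remaining ATP read by luciferase luminescence. Efficacy expressed as percentage of H-1152P positive control.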

[1] = recombinant GST-tagged human ROCK2, luciferase-based ATP consumption, read-out: ROCK2 IC50

T1 sequence (O75116 1-552): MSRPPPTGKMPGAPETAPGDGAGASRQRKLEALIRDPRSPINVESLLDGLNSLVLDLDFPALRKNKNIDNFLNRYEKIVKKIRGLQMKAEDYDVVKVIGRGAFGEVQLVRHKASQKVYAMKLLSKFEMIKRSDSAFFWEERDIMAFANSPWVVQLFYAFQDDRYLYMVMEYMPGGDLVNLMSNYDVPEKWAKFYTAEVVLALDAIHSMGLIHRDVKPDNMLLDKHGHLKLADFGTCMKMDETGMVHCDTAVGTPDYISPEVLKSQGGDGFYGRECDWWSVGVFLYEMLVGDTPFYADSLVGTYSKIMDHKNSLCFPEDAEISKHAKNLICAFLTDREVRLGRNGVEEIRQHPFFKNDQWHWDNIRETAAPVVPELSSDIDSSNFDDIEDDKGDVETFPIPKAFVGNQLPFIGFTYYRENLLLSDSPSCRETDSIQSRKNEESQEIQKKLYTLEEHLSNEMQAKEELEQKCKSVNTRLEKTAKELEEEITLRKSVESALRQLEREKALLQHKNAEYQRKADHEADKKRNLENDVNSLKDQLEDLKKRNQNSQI

Row | SMILES | IC50 [1] | IC50 (ROCK2 IC50, recombinant GST-tagged human ROCK2, luciferase-based ATP consumption)
1 | Cc1c(-c2ccnc(N)n2)sc2ccc(C(=O)NCc3ccccc3OC(F)(F)F)cc12 [Example 453, Cc1c(sc2ccc(cc12)C(═O)NCc3ccccc3OC(F)(F)F)-c4ccnc(N)n4] | > 5 µM | 
2 | Cc1c(-c2ccnc(N)n2)sc2ccc(C(=O)N3CCN(CC4CCCCC4)CC3)cc12 [Example 527, Cc1c(sc2ccc(cc12)C(═O)N3CCN(CC3)CC4CCCCC4)-c5ccnc(N)n5] | > 5 µM | 
3 | Cc1c(-c2ccnc(N)n2)sc2ccc(C(=O)NN3CCN(C)CC3)cc12 [Example 373, CN1CCN(CC1)NC(═O)c2ccc3sc(c(C)c3c2)-c4ccnc(N)n4] | < 5 µM | 
4 | Cc1c(-c2ccnc(N)n2)sc2ccc(C(=O)NCc3ccc(N(C)C)cc3)cc12 [Example 450, CN(C)c1ccc(CNC(═O)c2ccc3sc(c(C)c3c2)-c4ccnc(N)n4)cc1] | > 5 µM | 
5 | Cc1c(-c2ccnc(N)n2)sc2ccc(C(=O)N3CCN(c4ccccc4Cl)CC3)cc12 [Example 569, Cc1c(sc2ccc(cc12)C(═O)N3CCN(CC3)c4ccccc4Cl)-c5ccnc(N)n5] | > 5 µM | 
6 | Cc1c(-c2ccnc(N)n2)sc2ccc(C(=O)N3CCN(c4cccc(C(F)(F)F)c4)CC3)cc12 [Example 566, Cc1c(sc2ccc(cc12)C(═O)N3CCN(CC3)c4cccc(c4)C(F)(F)F)-c5ccnc(N)n5] | > 5 µM | 
7 | COc1ccc(CNC(=O)c2ccc3sc(-c4ccnc(N)n4)c(C)c3c2)cc1 [Example 403, COc1ccc(CNC(═O)c2ccc3sc(c(C)c3c2)-c4ccnc(N)n4)cc1] | < 5 µM | 
8 | Cc1ccc([C@@H](C)NC(=O)c2ccc3sc(-c4ccnc(N)n4)c(C)c3c2)cc1 [Example 395, C[C@@H](NC(═O)c1ccc2sc(c(C)c2c1)-c3ccnc(N)n3)c4ccc(C)cc4] | > 5 µM | 
9 | CCN(C(=O)c1ccc2sc(-c3ccnc(N)n3)c(C)c2c1)C(Cc1ccccc1)c1ccco1 (stereo not shown) [Example 560, CCN(C(Cc1ccccc1)c2ccco2)C(═O)c3ccc4sc(c(C)c4c3)-c5ccnc(N)n5] | < 5 µM | 
10 | Cc1c(-c2ccnc(N)n2)sc2ccc(C(=O)NCCCN3CCOCC3)cc12 [Example 415, Cc1c(sc2ccc(cc12)C(═O)NCCCN3CCOCC3)-c4ccnc(N)n4] | < 5 µM | 
11 | Cc1c(-c2ccnc(N)n2)sc2ccc(C(=O)NCCc3ccccc3)cc12 [Example 378, Cc1c(sc2ccc(cc12)C(═O)NCCc3ccccc3)-c4ccnc(N)n4] | < 5 µM | 
12 | Cc1c(-c2ccnc(N)n2)sc2ccc(C(=O)N3CCC(C)CC3)cc12 [Example 473, CC1CCN(CC1)C(═O)c2ccc3sc(c(C)c3c2)-c4ccnc(N)n4] | < 5 µM | 
13 | Cc1c(-c2ccnc(N)n2)sc2ccc(C(=O)NCc3ccc(Cl)cc3)cc12 [Example 410, Cc1c(sc2ccc(cc12)C(═O)NCc3ccc(Cl)cc3)-c4ccnc(N)n4] | < 5 µM | 
14 | Cc1c(-c2ccnc(N)n2)sc2ccc(C(=O)NC3CCCCC3)cc12 [Example 356, Cc1c(sc2ccc(cc12)C(═O)NC3CCCCC3)-c4ccnc(N)n4] | > 5 µM | 
15 | Cc1c(-c2ccnc(N)n2)sc2ccc(C(=O)NN3CCOCC3)cc12 [Example 361, Cc1c(sc2ccc(cc12)C(═O)NN3CCOCC3)-c4ccnc(N)n4] | < 5 µM | 
16 | Cc1c(-c2ccnc(N)n2)sc2ccc(C(=O)N(C)CCO)cc12 [Example 464, CN(CCO)C(═O)c1ccc2sc(c(C)c2c1)-c3ccnc(N)n3] | < 5 µM | 
17 | Cc1c(-c2ccnc(N)n2)sc2ccc(C(=O)NCCN3CCCCC3)cc12 [Example 387, Cc1c(sc2ccc(cc12)C(═O)NCCN3CCCCC3)-c4ccnc(N)n4] | < 5 µM | 
18 | Cc1c(-c2ccnc(N)n2)sc2ccc(C(=O)NCCCCO)cc12 [Example 354, Cc1c(sc2ccc(cc12)C(═O)NCCCCO)-c3ccnc(N)n3] | < 5 µM | 
19 | Cc1c(-c2ccnc(N)n2)sc2ccc(C(=O)N3CCCC4CCCCC43)cc12 (stereo not shown) [Example 502, Cc1c(sc2ccc(cc12)C(═O)N3CCCC4CCCCC34)-c5ccnc(N)n5] | > 5 µM | 
20 | Cc1c(-c2ccnc(N)n2)sc2ccc(C(=O)NCc3ccccc3Cl)cc12 [Example 409, Cc1c(sc2ccc(cc12)C(═O)NCc3ccccc3Cl)-c4ccnc(N)n4] |  | < 5 µM
21 | CCCCN(Cc1ccccc1)C(=O)c1ccc2sc(-c3ccnc(N)n3)c(C)c2c1 [Example 515, CCCCN(Cc1ccccc1)C(═O)c2ccc3sc(c(C)c3c2)-c4ccnc(N)n4] | > 5 µM | 
22 | Cc1c(-c2ccnc(N)n2)sc2ccc(C(=O)N3CCN(c4ccccc4F)CC3)cc12 [Example 525, Cc1c(sc2ccc(cc12)C(═O)N3CCN(CC3)c4ccccc4F)-c5ccnc(N)n5] | > 5 µM | 
23 | Cc1c(-c2ccnc(N)n2)sc2ccc(C(=O)NCc3cccc(C(F)(F)F)c3)cc12 [Example 445, Cc1c(sc2ccc(cc12)C(═O)NCc3cccc(c3)C(F)(F)F)-c4ccnc(N)n4] | < 5 µM | 
24 | Cc1c(-c2ccnc(N)n2)sc2ccc(C(=O)NCCc3ccccc3F)cc12 [Example 406, Cc1c(sc2ccc(cc12)C(═O)NCCc3ccccc3F)-c4ccnc(N)n4] | < 5 µM | 
25 | Cc1c(-c2ccnc(N)n2)sc2ccc(C(=O)N3CCN(c4ccc(C(F)(F)F)cn4)CC3)cc12 [Example 568, Cc1c(sc2ccc(cc12)C(═O)N3CCN(CC3)c4ccc(cn4)C(F)(F)F)-c5ccnc(N)n5] | > 5 µM | 
26 | Cc1c(-c2ccnc(N)n2)sc2ccc(C(=O)NCC(C)C)cc12 [Example 342, CC(C)CNC(═O)c1ccc2sc(c(C)c2c1)-c3ccnc(N)n3] | < 5 µM | 

Continued, in another order:

Row | IC50 [1] | SMILES | IC50 (ROCK2 IC50, recombinant GST-tagged human ROCK2, luciferase-based ATP consumption)
27 | < 5 µM | Cc1c(-c2ccnc(N)n2)sc2ccc(C(=O)NCC3CCCO3)cc12 (stereo not shown) [Example 357, Cc1c(sc2ccc(cc12)C(═O)NCC3CCCO3)-c4ccnc(N)n4] | 
28 | < 5 µM | Cc1c(-c2ccnc(N)n2)sc2ccc(C(=O)N(C)CC(O)c3ccccc3)cc12 (stereo not shown) [Example 507, CN(CC(O)c1ccccc1)C(═O)c2ccc3sc(c(C)c3c2)-c4ccnc(N)n4] | 
29 | < 5 µM | Cc1c(-c2ccnc(N)n2)sc2ccc(C(=O)NCCN)cc12 [Example 336, Cc1c(sc2ccc(cc12)C(═O)NCCN)-c3ccnc(N)n3] | 
30 | < 5 µM | Cc1c(-c2ccnc(N)n2)sc2ccc(C(=O)NC3CCN(Cc4ccccc4)C3)cc12 (stereo not shown) [Example 448, Cc1c(sc2ccc(cc12)C(═O)NC3CCN(C3)Cc4ccccc4)-c5ccnc(N)n5] | 
31 | < 5 µM | Cc1c(-c2ccnc(N)n2)sc2ccc(C(=O)N(Cc3cccnc3)Cc3cccnc3)cc12 [Example 547, Cc1c(sc2ccc(cc12)C(═O)N(Cc3cccnc3)Cc4cccnc4)-c5ccnc(N)n5] | 
32 | < 5 µM | CNC(=O)c1ccc2sc(-c3ccnc(N)n3)c(C)c2c1 [Example 329, CNC(═O)c1ccc2sc(c(C)c2c1)-c3ccnc(N)n3] | 
33 | < 5 µM | Cc1c(-c2ccnc(N)n2)sc2ccc(C(=O)N(Cc3ccccc3)C(C)C)cc12 [Example 505, CC(C)N(Cc1ccccc1)C(═O)c2ccc3sc(c(C)c3c2)-c4ccnc(N)n4] | 
34 | < 5 µM | Cc1c(-c2ccnc(N)n2)sc2ccc(Oc3cccc(O)c3)cc12 [Example 82, 3-(2-(2-Aminopyrimidin-4-yl)-3-methylbenzo[b]thiophen-5-yloxy)phenol] | 
35 | < 5 µM | Cc1c(-c2ccnc(N)n2)sc2ccc(C(=O)N3C[C@@H](C)N[C@@H](C)C3)cc12 [Example 485, C[C@@H]1CN(C[C@H](C)N1)C(═O)c2ccc3sc(c(C)c3c2)-c4ccnc(N)n4] | 
36 | < 5 µM | Cc1c(-c2ccnc(N)n2)sc2ccc(C(=O)NCCN(C)C)cc12 [Example 351, CN(C)CCNC(═O)c1ccc2sc(c(C)c2c1)-c3ccnc(N)n3] | 
37 | < 5 µM | Cc1c(-c2ccnc(N)n2)sc2ccc(C(=O)NCCc3ccc(O)cc3)cc12 [Example 400, Cc1c(sc2ccc(cc12)C(═O)NCCc3ccc(O)cc3)-c4ccnc(N)n4] | 
38 | < 5 µM | COc1ccc(CNC(=O)c2ccc3sc(-c4ccnc(N)n4)c(C)c3c2)cc1OC [Example 440, COc1ccc(CNC(═O)c2ccc3sc(c(C)c3c2)-c4ccnc(N)n4)cc1OC] | 
39 | < 5 µM | Cc1c(-c2ccnc(N)n2)sc2ccc(C(=O)N3CCCCC3CO)cc12 (stereo not shown) [Example 489, Cc1c(sc2ccc(cc12)C(═O)N3CCCCC3CO)-c4ccnc(N)n4] | 
40 | < 5 µM | Cc1c(-c2ccnc(N)n2)sc2ccc(C(=O)N3CCC(NC(=O)OC(C)(C)C)C3)cc12 (stereo not shown) [Example 531, Cc1c(sc2ccc(cc12)C(═O)N3CCC(C3)NC(═O)OC(C)(C)C)-c4ccnc(N)n4] | 
41 | < 5 µM | Cc1c(-c2ccnc(N)n2)sc2ccc(C(=O)NCCc3ccc(F)cc3)cc12 [Example 405, Cc1c(sc2ccc(cc12)C(═O)NCCc3ccc(F)cc3)-c4ccnc(N)n4] | 
42 | < 5 µM | Cc1c(-c2ccnc(N)n2)sc2ccc(C(=O)NCc3cccc(Cl)c3)cc12 [Example 408, Cc1c(sc2ccc(cc12)C(═O)NCc3cccc(Cl)c3)-c4ccnc(N)n4] | 
43 | < 5 µM | Cc1c(-c2ccnc(N)n2)sc2ccc(C(=O)NCCc3c[nH]c4ccccc34)cc12 [Example 435, Cc1c(sc2ccc(cc12)C(═O)NCCc3c[nH]c4ccccc34)-c5ccnc(N)n5] | 
44 | < 5 µM | Cc1c(-c2ccnc(N)n2)sc2ccc(C(=O)N3CCC[C@@H]3CO)cc12 [Example 476, Cc1c(sc2ccc(cc12)C(═O)N3CCC[C@@H]3CO)-c4ccnc(N)n4] | 
45 | < 5 µM | Cc1c(-c2ccnc(N)n2)sc2ccc(C(=O)N3CCN(Cc4ccc5c(c4)OCO5)CC3)cc12 [Example 563, Cc1c(sc2ccc(cc12)C(═O)N3CCN(CC3)Cc4ccc5OCOc5c4)-c6ccnc(N)n6] | 
46 | < 5 µM | Cc1c(-c2ccnc(N)n2)sc2ccc(C(=O)NCc3ccc4c(c3)OCO4)cc12 [Example 420, Cc1c(sc2ccc(cc12)C(═O)NCc3ccc4OCOc4c3)-c5ccnc(N)n5] | 
47 | < 5 µM | CCN(CCCCO)C(=O)c1ccc2sc(-c3ccnc(N)n3)c(C)c2c1 [Example 490, CCN(CCCCO)C(═O)c1ccc2sc(c(C)c2c1)-c3ccnc(N)n3] | 
48 | < 5 µM | COc1cc(CNC(=O)c2ccc3sc(-c4ccnc(N)n4)c(C)c3c2)cc(OC)c1 [Example 439, COc1cc(CNC(═O)c2ccc3sc(c(C)c3c2)-c4ccnc(N)n4)cc(OC)c1] | 
49 | < 5 µM | Cc1c(-c2ccnc(N)n2)sc2ccc(C(=O)N3CC(C)OC(C)C3)cc12 (stereo not shown) [Example 488, CC1CN(CC(C)O1)C(═O)c2ccc3sc(c(C)c3c2)-c4ccnc(N)n4] | 
